Laboratory results: ChEMBL document CHEMBL3044830, “Synthesis, characterization, antibacterial, antifungal, and immunomodulating activities of gatifloxacin derivatives” (Med Chem Res, 2010)

Experiments:
[1] = tested on: Citrobacter; experiment: Antibacterial activity against Citrobacter assessed as concentration required to obtain a zone of inhibition of 5 mm after 18 to 24 hr by disk diffusion method; assay type: functional
[2] = tested on: Staphylococcus aureus; experiment: Antibacterial activity against methicillin-resistant Staphylococcus aureus assessed as concentration required to obtain a zone of inhibition of 5 mm after 18 to 24 hr by disk diffusion method; assay type: functional
[3] = tested on: Blood; experiment: Antioxidant activity in Homo sapiens (human) whole blood assessed as inhibition of ROS production at 50 ug/ml after 30 min by luminol-enhanced chemiluminescence assay; assay type: functional; details: 0.5 h
[4] = tested on: T-cell; experiment: Anti-inflammatory activity in Homo sapiens (human) T lymphocytes assessed as inhibition of PHA-induced [3H] thymidine uptake at 12.5 ug/ml incubated for 72 hr prior to [3H]thymidine addition measured after 18 hr by liquid scintillation method; assay type: functional
[5] = tested on: Shigella sp.; experiment: Antibacterial activity against Shigella typhi assessed as concentration required to obtain a zone of inhibition of 5 mm after 18 to 24 hr by disc diffusion method; assay type: functional
[6] = tested on: Fusarium solani; experiment: Antifungal activity against Fusarium solani assessed as zone of inhibition at 5 to 40 ug/ml after 7 days by disk diffusion method relative to gatifloxacin; assay type: functional
[7] = tested on: T-cell; experiment: Anti-inflammatory activity in Homo sapiens (human) T lymphocytes assessed as inhibition of PHA-induced [3H] thymidine uptake incubated for 72 hr prior to [3H]thymidine addition measured after 18 hr by liquid scintillation method; assay type: functional, cell-based
[8] = tested on: Candida albicans; experiment: Antifungal activity against Candida albicans assessed as concentration required to obtain a zone of inhibition of 40 mm after 7 days by disk diffusion method; assay type: functional
[9] = tested on: T-cell; experiment: Anti-inflammatory activity in Homo sapiens (human) T lymphocytes assessed as inhibition of PHA-induced [3H] thymidine uptake at 3.12 ug/ml incubated for 72 hr prior to [3H]thymidine addition measured after 18 hr by liquid scintillation method; assay type: functional
[10] = tested on: Candida albicans; experiment: Antifungal activity against Candida albicans assessed as concentration required to obtain a zone of inhibition of 20 mm after 7 days by disk diffusion method; assay type: functional
[11] = tested on: Blood; experiment: Antioxidant activity in Homo sapiens (human) whole blood assessed as inhibition of ROS production at 12.5 ug/ml after 30 min by luminol-enhanced chemiluminescence assay; assay type: functional; details: 0.5 h
[12] = tested on: Trichophyton rubrum; experiment: Antifungal activity against Trichophyton rubrum assessed as concentration required to obtain a zone of inhibition of 40 mm after 7 days by disk diffusion method; assay type: functional
[13] = tested on: Citrobacter; experiment: Antibacterial activity against Citrobacter assessed as concentration required to obtain a zone of inhibition of 10 mm after 18 to 24 hr by disk diffusion method; assay type: functional
[14] = tested on: Saccharomyces cerevisiae; experiment: Antifungal activity against Saccharomyces cerevisiae assessed as zone of inhibition at 5 to 40 ug/ml after 7 days by disk diffusion method relative to gatifloxacin; assay type: functional
[15] = tested on: Trichophyton rubrum; experiment: Antifungal activity against Trichophyton rubrum assessed as zone of inhibition at 5 to 40 ug/ml after 7 days by disk diffusion method relative to gatifloxacin; assay type: functional
[16] = tested on: Proteus mirabilis; experiment: Antibacterial activity against Proteus mirabilis assessed as zone of inhibition at 5 to 40 ug/ml after 18 to 24 hr by disc diffusion method relative to gatifloxacin; assay type: functional
[17] = tested on: Escherichia coli; experiment: Antibacterial activity against Escherichia coli assessed as concentration required to obtain a zone of inhibition of 20 mm after 18 to 24 hr by disk diffusion method; assay type: functional
[18] = tested on: Bacillus subtilis; experiment: Antibacterial activity against Bacillus subtilis assessed as zone of inhibition at 5 to 40 ug/ml after 18 to 24 hr by disk diffusion method relative to gatifloxacin; assay type: functional
[19] = tested on: Pseudomonas aeruginosa; experiment: Antibacterial activity against Pseudomonas aeruginosa assessed as concentration required to obtain a zone of inhibition of 10 mm after 18 to 24 hr by disk diffusion method; assay type: functional
[20] = Antibacterial activity against Hofmanni bacterium assessed as concentration required to obtain a zone of inhibition of 10 mm after 18 to 24 hr by disc diffusion method
[21] = tested on: Blood; experiment: Antioxidant activity in Homo sapiens (human) whole blood assessed as inhibition of ROS production after 30 min by luminol-enhanced chemiluminescence assay; assay type: functional, tissue-based; details: 0.5 h
[22] = tested on: Candida albicans; experiment: Antifungal activity against Candida albicans assessed as zone of inhibition at 5 to 40 ug/ml after 7 days by disk diffusion method relative to gatifloxacin; assay type: functional
[23] = tested on: Staphylococcus aureus; experiment: Antibacterial activity against methicillin-resistant Staphylococcus aureus assessed as zone of inhibition at 5 to 40 ug/ml after 18 to 24 hr by disk diffusion method relative to gatifloxacin; assay type: functional
[24] = tested on: Blood; experiment: Antioxidant activity in Homo sapiens (human) whole blood assessed as inhibition of ROS production at 100 ug/ml after 30 min by luminol-enhanced chemiluminescence assay; assay type: functional; details: 0.5 h
[25] = tested on: Shigella sp.; experiment: Antibacterial activity against Shigella typhi assessed as zone of inhibition after 18 to 24 hr by disc diffusion method relative to gatifloxacin; assay type: functional
[26] = tested on: Fusarium solani; experiment: Antifungal activity against Fusarium solani assessed as concentration required to obtain a zone of inhibition of 40 mm after 7 days by disk diffusion method; assay type: functional
[27] = tested on: Klebsiella pneumoniae; experiment: Antibacterial activity against Klebsiella pneumoniae assessed as concentration required to obtain a zone of inhibition of 10 mm after 18 to 24 hr by disk diffusion method; assay type: functional
[28] = tested on: Shigella flexneri; experiment: Antibacterial activity against Shigella flexneri assessed as concentration required to obtain a zone of inhibition of 5 mm after 18 to 24 hr by disk diffusion method; assay type: functional
[29] = Antibacterial activity against Hofmanni bacterium assessed as concentration required to obtain a zone of inhibition of 5 mm after 18 to 24 hr by disc diffusion method
[30] = tested on: Fusarium solani; experiment: Antifungal activity against Fusarium solani assessed as concentration required to obtain a zone of inhibition of 20 mm after 7 days by disk diffusion method; assay type: functional
[31] = tested on: Pseudomonas aeruginosa; experiment: Antibacterial activity against Pseudomonas aeruginosa assessed as zone of inhibition at 5 to 40 ug/ml after 18 to 24 hr by disk diffusion method relative to gatifloxacin; assay type: functional
[32] = tested on: Bacillus subtilis; experiment: Antibacterial activity against Bacillus subtilis assessed as concentration required to obtain a zone of inhibition of 20 mm after 18 to 24 hr by disk diffusion method; assay type: functional
[33] = tested on: Proteus mirabilis; experiment: Antibacterial activity against Proteus mirabilis assessed as concentration required to obtain a zone of inhibition of 20 mm after 18 to 24 hr by disc diffusion method; assay type: functional
[34] = tested on: Pseudomonas aeruginosa; experiment: Antibacterial activity against Pseudomonas aeruginosa assessed as concentration required to obtain a zone of inhibition of 20 mm after 18 to 24 hr by disk diffusion method; assay type: functional
[35] = tested on: Citrobacter; experiment: Antibacterial activity against Citrobacter assessed as zone of inhibition at 5 to 40 ug/ml after 18 to 24 hr by disk diffusion method relative to gatifloxacin; assay type: functional
[36] = tested on: Shigella flexneri; experiment: Antibacterial activity against Shigella flexneri assessed as concentration required to obtain a zone of inhibition of 10 mm after 18 to 24 hr by disk diffusion method; assay type: functional
[37] = Antibacterial activity against Hofmanni bacterium assessed as concentration required to obtain a zone of inhibition of 20 mm after 18 to 24 hr by disc diffusion method

Structure (SMILES) | Activity [1] | Activity [2] | inhibition at 50 µg/mL [3] | inhibition at 12.5 µg/mL [4] | Activity [5] | inhibition zone (IZ) [6] | IC50 [7] | Activity [8] | inhibition at 3.12 µg/mL [9] | Activity [10] | inhibition at 12.5 µg/mL [11] | Activity [12] | Activity [13] | inhibition zone (IZ) [14] | inhibition zone (IZ) [15] | inhibition zone (IZ) [16] | Activity [17] | inhibition zone (IZ) [18] | Activity [19] | Activity [20] | other results
COc1c(N2CCN(C(C)=O)C(C)C2)c(F)cc2c(=O)c(C(=O)O)cn(C3CC3)c12.O (stereo unspecified) | 17 µg/mL | 14 µg/mL | -17.4% | -35.7% | 9 µg/mL | 93.3% | > 50 mg/L | 19 µg/mL | -23.4% | 16 µg/mL | -14.3% | 34 µg/mL | 21 µg/mL | 0% | 239% | 76.6% | 22 µg/mL | 100% | 17 µg/mL | 12 µg/mL | IC50 [21]: > 100 mg/L; inhibition zone (IZ) [22]: 206%; inhibition zone (IZ) [23]: 124%; inhibition at 100 µg/mL [24]: -15.1%; inhibition zone (IZ) [25]: 113%; Activity [26]: 15 µg/mL; Activity [27]: 23 µg/mL; Activity [28]: 19 µg/mL; Activity [29]: 8 µg/mL; Activity [30]: 13 µg/mL; inhibition zone (IZ) [31]: 150.1%; Activity [32]: 17 µg/mL; Activity [33]: 12 µg/mL; Activity [34]: 24 µg/mL; inhibition zone (IZ) [35]: 98.9%; Activity [36]: 22 µg/mL; Activity [37]: 16 µg/mL
CCCCCCCC(=O)N1CCN(c2c(F)cc3c(=O)c(C(=O)O)cn(C4CC4)c3c2OC)CC1C.O (stereo unspecified) | 8 µg/mL | 7 µg/mL | 89.2% | -41.5% | 8 µg/mL | 110% | > 50 mg/L | 21 µg/mL | -59.5% | 16 µg/mL | 74.1% | 17 µg/mL | 10 µg/mL | 0% | 127% | 92% | 14 µg/mL | 80.2% | 10 µg/mL | 11 µg/mL | IC50 [21]: < 12.5 mg/L; inhibition zone (IZ) [22]: 218%; inhibition zone (IZ) [23]: 76.7%; inhibition at 100 µg/mL [24]: 96.1%; inhibition zone (IZ) [25]: 87.5%; Activity [26]: 19 µg/mL; Activity [27]: 14 µg/mL; Activity [28]: 12 µg/mL; Activity [29]: 7 µg/mL; Activity [30]: 14 µg/mL; inhibition zone (IZ) [31]: 78.57%; Activity [32]: 13 µg/mL; Activity [33]: 14 µg/mL; Activity [34]: 11 µg/mL; inhibition zone (IZ) [35]: 51.5%; Activity [36]: 15 µg/mL; Activity [37]: 14 µg/mL
COc1c(N2CCN(C(=O)c3ccccc3)C(C)C2)c(F)cc2c(=O)c(C(=O)O)cn(C3CC3)c12.O (stereo unspecified) | 8 µg/mL | 9 µg/mL | 11.1% | -41.5% | 8 µg/mL | 120% | > 50 mg/L | 14 µg/mL | -59.5% | 10 µg/mL | -5.1% | 27 µg/mL | 10 µg/mL | 0% | 185% | 78.8% | 19 µg/mL | 104% | 12 µg/mL | 12 µg/mL | IC50 [21]: > 100 mg/L; inhibition zone (IZ) [22]: 141%; inhibition zone (IZ) [23]: 87.4%; inhibition at 100 µg/mL [24]: 15%; inhibition zone (IZ) [25]: 80.2%; Activity [26]: 19 µg/mL; Activity [27]: 14 µg/mL; Activity [28]: 11 µg/mL; Activity [29]: 6 µg/mL; Activity [30]: 17 µg/mL; inhibition zone (IZ) [31]: 117.9%; Activity [32]: 18 µg/mL; Activity [33]: 12 µg/mL; Activity [34]: 18 µg/mL; inhibition zone (IZ) [35]: 47.6%; Activity [36]: 13 µg/mL; Activity [37]: 14 µg/mL
